What was measured:
[1] = test system: M13 CaM-BP; assay: BLA-CaM chimera activity, nitrocefin assay with or without CaM-BP; type: biochemical
Description: FIG. 5. Construction of β-lactamase single insert CaM chimeras (BLA-CaM). (A) A schematic showing th β-lactamase (BLA) assay. BLA degrades the beta-lactam ring nitrocefin. which can be detected by a colour change from yellow to red, for example using a wavelength λ=482 nm (wavelengths of λ=486 nm and λ=480 nm may also be used). […] (C) Activity of purified BLA-CaM chimeras in the presence (interrupted line) or absence (solid line) of saturating concentrations of M13 peptide. The insertion position is indicated by a number and a letter denoting deleted amino acid.
FIG. 6. Construction of B-lactamase double insert CaM chimeras (2CaM-BLA). (A) Activity analysis of a solution of 250 nM BLA-CaM 41G in the presence of 50 μM nitrocefin and in the presence (interrupted line) or absence (solid line) of 1 μM of M13 CaM-BP. […]
A range of insertion mutants of the enzyme β-lactamase (BLA) and calmodulin were constructed. β-lactamase degrades the beta-lactam ring in nitrocefin, which can be detected by a colour change from yellow to red (FIG. 5A). The β-lactamase structure (PDB: 3gmw) was analysed and a range of Calmodulin (BLA-CaM) chimeras were designed. […] The activity of the wild type β-lactamase as well as the BLA-CaM chimeras was monitored in the presence or absence of CaM-BP (M13). […]

[2] = test system: M13 CaM-BP; assay: GDH-CaM chimera activity, PMS/DCPIP assay with or without CaM-BP; type: biochemical; conditions: 10 nM chimera, presence vs absence of 1 μM M13 CaM-BP
Procedure: FIG. 11. Construction of a glucose dehydrogenase (GDH) AND gate biosensor. (A) GDH-CaM 48N activation by CaM-BP. activity analysis of a solution of 10 nM GDH-CaM 48N in the presence of 0.6 mM PMS as electron mediator and 60 μM DCPIP reporter dye in the presence of absence of 1 μM of M13 CaM-BP. (B) GDH-CaM 212N activation by CaM-BP. activity analysis of a solution of 10 nM GDH-CaM 212N in the presence of 0.6 mM PMS as electron mediator and 60 μM DCPIP reporter dye in the presence of absence of 1 μM of M13 CaM-BP. (C) GDH-CaM 48N_212N activation by CaM-BP. activity analysis of a solution of 10 nM GDH-CaM 48N_212N in the presence of 0.6 mM PMS as electron mediator and 60 μM DCPIP reporter dye in the presence of absence of 1 μM of M13 CaM-BP.
A range of insertion mutants of the enzyme glucose dehydrogenase (GDH) and calmodulin were constructed. […] The activity of GDH was monitored using 5-methylphenazinium methyl sulfate (PMS) as an electron mediator and 2,6-dichlorophenolindophenol (DCPIP) as a reporter dye, which upon reduction changes from blue to colourless. The GDH structure (PDB: 1c9u) was analysed and a library of CaM domain insertions was generated. […]
E.coli and purified to homogeneity. […] The activity of the wild type GDH as well as the GDH-CaM chimeras was monitored in the presence or absence of CaM-BP (M13). […]

| Substance | activity retained compared to the wild type enzyme ([1]; 10 nM enzyme, saturating M13 CaM-BP) | dynamic range ([1]; 50 μM nitrocefin, presence vs absence of M13 CaM-BP) | dynamic range [2] |
| --- | --- | --- | --- |
| BLA-CaM 41G_197E: β-lactamase with calmodulin insertions at positions 41 and 197 | about 25% | over 7000 fold | – |
| GDH-CaM 48N_212N: Glucose dehydrogenase with calmodulin insertions at positions 48 and 212 | – | – | over 20 fold |
